“Also recorded” adds a separate entry of the source.
Assays:
[1] = test system: co-cultured human endothelial cells; assay: Human multicellular angiogenesis model (AngioKit); assay type: cell-based; conditions: AngioKit, 30, 100 and 300 nM
Description: Briefly, 24 well plates were seeded with cells on day 0 and medium was changed on days 3, 4, 7, 10 and 12. […] All AngioKits were then fixed and stained on day 14, using the CD31 Staining Kits according to the standard AngioKit procedure. Comparison of tubule development was conducted using the “AngioSys” image analysis system developed specifically for the analysis of images produced using the AngioKit. Four images taken from predetermined positions within each well were recorded. Each concentration of test compound therefore yielded […] for analysis in duplicate. Images were always taken from as close to the centre of each quadrant as possible. Four tubule parameters were measured: total tubule length, total tubule area, number of branch points and number of tubules formed. All statistical analyses were carried out using the Stat 100 programme from BIOSOFT Ltd. using ANOVA and Duncan's Multiple Comparison Test to measure differences between the test compounds with the untreated control values. Alpha was always 0.05 unless otherwise stipulated.

[2] = test system: anti-angiogenesis genes in colon adenocarcinoma HCT15 cells; assay: Microarray analysis of anti-angiogenesis genes in HCT15 cells; assay type: cell-based, human; conditions: 1 μM, 24 h
Description: RNA labeling, microarray hybridization, scanning and analysis were performed by Genotypics (India). RNAs were labeled with either Cy3 or Cy5 using Agilent's optimized labeling kits and hybridized to Human whole genome 44K Oligo Microarray. Array chips were ordered from Agilent (Palo Alto, Calif.). Slides were scanned using a DNA microarry scanner from Agilent and the raw data was extracted using Agilent's image analysis tool (feature extraction software). Normalization and Statistical analysis were performed using GeneSpring software. Biological analysis was performed using Biointerpreter software.
FIG. 4a indicates a list of selected genes with anti-angiogenesis function. The numbers indicate the fold induction in treated samples compared to non-treated samples (average of three biological replicates ±standard deviation).

[3] = test system: MT3 transcription in human colon cancer HCT15 cells; assay: MT3 transcription in HCT15 cells, real time RT-PCR; assay type: cell-based; conditions: 1 uM
Description: (§1) Total RNAs were extracted from cell pellets or from tumors using QiaShredder and RNeasy mini kit (Qiagen). 1 μg RNA was converted into cDNA using Expand RT enzyme (Roche) and Oligo(dT) primers (Invitrogen) in a 20 μl reaction volume. For quantitative real-time PCR, the primers used for MT3 were [NT] and [NT] and those for β-actin were [NT] and [NT]. Reactions with either pair of primers included an annealing temperature of 63.4° C. All real-time PCR reactions were performed on the MasterCycler ep Realplex (Eppendorf) using FastStart SYBRGreen Master (Roche).

[4] = test system: MT3 transcription in human T-cell leukemia Jurkat-T cells; assay: MT3 transcription in Jurkat-T cells, real time RT-PCR; assay type: cell-based; conditions: 24 hours
Description: as §1

[5] = test system: MT3 transcription in human myeloma RPMI-8226 cells; assay: MT3 transcription in RPMI-8226 cells, real time RT-PCR; assay type: cell-based; conditions: 24 hours
Description: as §1

H460 (NSCLC) xenografts = assay: H460 (NSCLC) xenograft, oral HDAC inhibitor with taxol; assay type: in vivo, mouse
Description: (§2) Antitumor studies were done using human H460 non-small cell lung tumor, Du145 prostate tumor, TSU-Pr1 prostate tumor, and AZ521 gastric tumor xenograft model in male BALBc/A nude mice (from Japan Crea Inc., Japan). Male nude mice were used at age 8-10 weeks. Human carcinoma cells were injected subcutaneously in the animal flank and allowed to form solid tumors. Tumor fragments (about 2 mm^3 fragments) were then removed and implanted subcutaneously through a small surgical incision to the right flank of other animals. […] Tumor volumes and gross body weight of animals were monitored twice weekly for up to 2 weeks for AZ-521 and TSU-Pr1, or 4 weeks for H460 and Du145 xenografts. Each experimental group contained 6 animals.

[6] = test system: TSP-1 expression in cancer cells (Du145, H460, A549); assay: TSP-1 transcription in cancer cells in vitro; assay type: cell-based, human; conditions: over time, 3 microM, 24 hours
Description: Cells were exposed by Cpd A or SAHA (3 microM) for 24 hours. Total RNA was collected by Isogen (Nippongene, Tokyo, Japan) and reverse-transcribed to cDNA by ExScript® RT reagent Kit (TAKARA, Kyoto, Japan). The expression level of TSP-1 mRNA was detected by ABI7700 analyzer using a probe/primer pre-mixture reagent (ABI, Cat#, CA, USA) and TaqMan® Universal PCR Master Mix (ABI, Cat# 430-4437) as described in the ABI's protocol.

[7] = test system: human H460 non-small cell lung tumor xenograft; assay: H460 xenograft, combination with taxotere; assay type: in vivo, mouse; conditions: H460, oral Compound A 3 times weekly with taxotere i.v. single dose
Description: as §2, with “lung” for “lung tumor, Du145 prostate tumor, TSU-Pr1 prostate tumor, and AZ521 gastric”, “mm^2” for “mm^3”, “subcutaneously” for “subcutaneously through a small surgical incision”, “3 weeks.” for “2 weeks for AZ-521 and TSU-Pr1, or 4 weeks for H460 and Du145 xenografts.”

[8] = test system: human AZ521 gastric tumor xenograft; assay: AZ521 gastric tumor xenograft, combination with taxol; assay type: in vivo, mouse; conditions: AZ521, Compound D 40 mg/kg oral daily 14 days with taxol 20 mg/kg i.v.
Description: Antitumor studies were done using human AZ521 gastric tumor xenograft model in male BALBc/A nude mice (from Japan Crea Inc., Japan). Male nude mice were used at age 8-10 weeks. Human carcinoma cells were injected subcutaneously in the animal flank and allowed to form solid tumors. Tumor fragments (about 2 mm^2 fragments) were then removed and implanted subcutaneously to the right flank of other animals. When the tumor sizes reached about 100 to 200 mm^3, recipient animals were treated Compound D (40 mg/kg, suspended with 0.5% HPMC) by oral administration alone, or taxol by i.v. injection (20 mg/kg), or combination of taxol with oral administration of Compound D. Typically, taxol was administered once per week by iv injection on the first day as a single administration, while Compound D was administered once daily for 14 days. Tumor volumes and gross body weight of animals were monitored twice weekly for up to 2 weeks. Each experimental group contained 6 animals.

Nc1ccccc1NC(=O)c1ccc(CNc2nccc(-c3cccnc3)n2)cc1 [Compound A]
tubule length [1]: inhibits | transcription of anti-angiogenesis genes [2]: affects several genes of the angiogenesis pathway; also recorded: induction | MT3 transcription [3]: much more potent than SAHA | MT3 transcription [4]: dose-dependent induction | MT3 transcription [5]: dose-dependent induction | tumor response to combination therapy with taxol (H460 (NSCLC) xenografts; Compound A 100 mg/kg or SAHA 120 mg/kg with taxol 60 mg/kg): tumor regression | anti-tumor effect of taxane (tumor volume) (H460 (NSCLC) xenografts; Compound A 100 mg/kg p.o. 3 times per week with taxol 60 mg/kg i.v. day 1): potentiation | TSP-1 expression [6]: induction | antitumor activity of taxotere [7]: Potentiation

Nc1ccc(-c2ccccc2)cc1NC(=O)c1ccc(N2CC[C@H](N)C2)cc1 [Compound D]
antitumor activity of taxol [8]: Potentiation
